# Values quoted from earlier work in patent publication US8217079B2 (priority 2010, dated 2012).
# System: PVR-1 gene expression
# Conditions: sub-micromolar concentrations; peripheral blood of JAK2^V617F PV patients; cited from earlier work
smiles,measurement,value
"CCN(CC)Cc1ccc2cc(COC(=O)Nc3ccc(C(=O)NO)cc3)ccc2c1.Cl [ITF2357, Diethyl-[6-(4-hydroxycarbamoyl-phenylcarbamoyloxymethyl)-naphthalen-2-ylmethyl]-ammonium chloride]",PVR-1 gene expression in granulocytes,down-modulate
